Earlier results on one molecule are cited in patent US20230138262A1, “FAST-DISINTEGRATING SOLID HERBICIDE COMPOSITION AND THE USE THEREOF” (Rotam Agrochem International Company Limited, priority 2021, published 2023).

One data set concerns corn. To be noted: in vivo.

As to `Cc1c(C(=O)c2cnn(C)c2O)ccc(S(C)(=O)=O)c1C1=NOCC1` [Topramezone], the Safety to corn result in the data set with corn is on record as “safe to corn”. Also, in the data set on sensitive weeds (after application), the “Time to appearance of albino toxication symptoms in overground part of weeds after application” value is 2 to 5 days. In addition, the “Time from application to death of weeds” value in the data set with sensitive weeds (depending on weather and environment) is 10 to 15 days.
